Measurements published in US20210322404A1, “FGFR REGULATION FOR THE TREATMENT OF VIRAL INFECTIONS” (ETH ZURICH, priority 2016, published 2021).
“Also recorded” adds a separate entry of the source.

Legend:
HSV-1 = HSV-1 infection of HaCaT cells, virus load; type: cell-based, Herpes Simplex Virus type 1; conditions: HaCaT; for Glyc-B DNA levels (viral load, qPCR relative to human β-actin gene): HSV-1 MOI=0.5, +/- FGF7 10 ng/ml, BGJ398 3.5 μM; for Glyc-B DNA levels (viral load, qPCR relative to human β-actin gene) / amount and size of Glyc-D-positive fused cells (immunofluorescence): NSC23766 20 μM, AZD4547 1 μM; for amount and size of Glyc-D-positive fused cells (immunofluorescence): HSV-1
Method: FIGS. 5A-C relate to HaCaT cells infected with HSV-1 (MOI=0.5) after overnight serum starvation, either alone or in combination with FGF7 (10 ng/ml) or IFNα (1000U/ml). 24 h after infection, virus load was determined by qPCR for the HSV-1 Glycoprotein B (Glyc-B) gene relative to the human β-actin gene (A) or visualized by immunofluorescence staining for HSV-1 Glycoprotein D (Glyc-D) (red) (B). The Glyc-B/β-actin gene ratio in HSV-1 infected cells was set to 1. Cell nuclei were stained with DAPI (blue). Magnification bar: 200 μm. (C) Transmission microscopy images of HaCaT cells taken 48 h after HSV-1 infection. […] Magnification bar: 80 μm. Representative data out of four experiments are shown.
FIGS. 5 D & E relate to overnight-starved HaCaT cells infected with HSV-1 (MOI=0.5) alone or in combination with IFNα (1000 U/ml), IFNα and FGF7 (10 ng/ml) (D); or FGF7 at different concentrations (E).
FIG. 5F pertains to serum-starved HaCaT cells that were infected with HSV-1 (MOI 0.5-1). After 4 h, infected cells were washed with PBS, followed by addition of fresh serum-free culture medium containing FGF7 (10 ng/ml).
FIGS. 5G-K pertains to overnight-starved HaCaT cells infected with HSV-1 (MOI=0.5) alone or in combination with FGF7, which was added at the indicated time points. 12 h after infection, cells were analyzed for Glyc-B DNA (H) and, RSAD2 and IRF7 mRNA levels by qPCR/qRT-PCR (I) or for ISG protein levels by western blotting (K). Vinculin was used as loading control.
FIGS. 7A-C relate to serum-starved HaCaT cells that were infected with HSV-1 in the presence or absence of FGF7 (10 ng/ml), NSC23766 (20 μM), the FGFR kinase inhibitors AZD4547 (1 μM) and BGJ398 (3.5 μM) (A) or IFNα (1000 U/ml) (B). […] Magnification bar: 500 μm. The Glyc-D positive area was quantified using digital pixel measurements (C, right). A representative out of two experiments is shown.
Frozen sections from mouse back skin were fixed with cold methanol, and unspecific binding sites were blocked with PBS/2% bovine serum albumin (BSA) (Sigma)/1% fish skin gelatin (Sigma)/0.05% Triton X-100 (Carl Roth GmbH, Karlsruhe, Germany) for 2 h at room temperature. Samples were then incubated overnight at 4° C. with anti-IRF7 or anti-K14 antibodies diluted in the same buffer. After three washes with 1×PBS/0.1% Tween 20 (Carl Roth GmbH), slides were incubated at room temperature (RT) for 4 h with secondary antibodies (AF555-conjugated anti-rabbit IgG and AF488-conjugated anti-mouse IgG) and DAPI (4′,6-diamidino-2-phenylindole dihydrochloride) (Sigma) as counter-stain, washed again and mounted with Mowiol (Hoechst, Frankfurt, Germany). Stained sections were photographed with a Leica SP1-2 confocal microscope equipped with a 63×0.6-1.32 NA (Iris) PL Apo Oil objective. For data acquisition the Leica Confocal Software (Leica, Wetzlar, Germany) was used. For immunofluorescence staining of cultured cells, they were washed with PBS and either fixed for 5 min with cold methanol for staining with antibodies against ZO-1 and IRF7, or with 4% paraformaldehyde (PFA) (Sigma) for 20 min at RT for Glyc-D staining. PFA-fixed cells were then incubated for 10 min with 0.5% Triton X-100 in PBS. After 1 h blocking in PBS containing 2% BSA, cells were stained with the primary antibodies for 1 h in the same blocking buffer. After three washes with PBS, cells were incubated with the secondary antibodies (AF555-conjugated anti-mouse IgG, AF488-conjugated anti-mouse IgG and AF555-conjugated anti-rabbit IgG) and DAPI.

HCV = conditions: hepatic / hepatoma cells, Van et al.; cited from earlier work
[1] = test system: interferon-stimulated genes (ISGs); experiment: ISG expression in primary mouse keratinocytes pre-incubated with inhibitors, then treated with FGF7 (qRT-PCR); type: cell-based; conditions: primary keratinocytes from wild-type mice; inhibitor 3 h (SB203580 5 μM, NSC23766 50 μM, AZD4547 1 μM), then FGF7 10 ng/ml 6 h
[2] = test system: interferon-stimulated response element (ISRE); experiment: ISRE luciferase reporter assay in immortalized mouse keratinocytes; type: cell-based; conditions: FGF7 10 ng/ml and/or IFNα 1000 U/ml, 12 h
Method: FIG. 3C pertains to immortalized mouse keratinocytes that were co-transfected with TK-Renilla and pGL4.45[luc2P/ISRE/Hygro] plasmids, starved in serum-free medium and then treated with FGF7 (10 ng/ml) and/or IFNα (1000 U/ml) for 12 h. Firefly luciferase activity was determined in cell lysates and normalized to Renilla luciferase activity (transfection control). The mean value in vehicle-treated cells (CTRL) was set to 1.
Mouse keratinocytes and HEK 293 cells were transfected with the expression vector for TK-Renilla and the expression vector pGL4.45[luc2P/ISRE/Hygro] (Promega). The latter contains five copies of an ISRE that drives expression of the luciferase reporter gene. Cells were seeded into 12-well plates, cultured for 24 h, and transfected using Lipofectamine 2000 […]. They were then starved in serum-free medium, treated with FGF7 (10 ng/ml) and/or IFNα (1000 U/ml) for 12 h, lysed and analyzed using a dual-luciferase assay system (Promega) as described by the manufacturer. Relative light units were measured in a GloMax 96 microplate luminometer with dual injectors (Promega).

LCMV = type: cell-based, Lymphocytic Choriomeningitis Virus; conditions: HaCaT, LCMV MOI 0.05 or 0.2
[3] = test system: interferon-stimulated genes (ISGs); experiment: ISG expression in human keratinocytes (HaCaT, primary foreskin) treated with FGF7, FGF10 and/or IFNα (qRT-PCR); type: cell-based; conditions: HaCaT, 10 ng/ml, 6 h
Method: FIG. 2F relates to serum-starved immortalized human keratinocytes (HaCaT cell line) that were treated for 6 h with FGF7, FGF10 (both 10 ng/ml) or vehicle (CTRL). RNA was analyzed by qRT-PCR for the expression of the indicated ISGs relative to RPLP0. Mean expression levels in CTRL cells were set to 1. Representative data from three experiments are shown. Scatter plot and mean values are shown in (A-D). Each dot represents a biological replicate.
FIGS. 3E and F pertain to confluent human primary foreskin keratinocytes and (E) or HaCaT cells (F) that were serum-starved for 24 h and treated with FGF7 (10 ng/ml) and/or IFNα (500 U/ml) for 16 h. Cells were analyzed for ISG mRNA levels by qRT-PCR relative to RPLP0. Mean expression levels in vehicle-treated (CTRL) cells were set to 1.
The human HaCaT keratinocyte cell line was cultured in DMEM (Sigma) supplemented with 10% FCS (Thermo Fisher). […]
Total RNA from isolated epidermis of mice or from total skin was purified with Trizol, followed by additional purification with the RNeasy Mini Kit, including on-column DNase treatment (Qiagen, Hilden, Germany). […] Relative gene expression was determined using the Roche LightCycler 480 SYBR Green system (Roche, Rotkreuz, Switzerland).

CCN1CCN(c2ccc(Nc3cc(N(C)C(=O)Nc4c(Cl)c(OC)cc(OC)c4Cl)ncn3)cc2)CC1 [BGJ398, 3-(2,6-dichloro-3,5-dimethoxyphenyl)-1-[6-[4-(4-ethylpiperazin-1-yl)anilino]pyrimidin-4-yl]-1-methylurea, reference compound]
Glyc-B DNA levels (viral load, qPCR relative to human β-actin gene) (HSV-1): inhibited the positive effect of FGF7 on viral replication

FGF1: member of the FGF family that binds to all FGFRs
HCV replication (HCV): does not enhance HCV replication

COc1cc(CCc2cc(NC(=O)c3ccc(N4C[C@@H](C)N[C@@H](C)C4)cc3)n[nH]2)cc(OC)c1 [AZD4547, N-[5-[2-(3,5-dimethoxyphenyl)ethyl]-1H-pyrazol-3-yl]-4-[(3R,5S)-3,5-dimethylpiperazin-1-yl]benzamide, reference compound]
FGF7-mediated ISG downregulation (ISG mRNA relative to Rps29) [1]: The same effect was observed
amount and size of Glyc-D-positive fused cells (immunofluorescence) (HSV-1): strongly reduced the amount of Glyc-D-positive fused cells
Glyc-B DNA levels (viral load, qPCR relative to human β-actin gene) (HSV-1): inhibited the positive effect of FGF7 on viral replication

IFNα
appearance of HSV-1 infected cells (transmission microscopy) (HSV-1; 48 h after infection): almost indistinguishable from non-infected cells
viral glycoprotein B (Glyc-B) DNA (HSV-1; HSV-1 MOI=0.5, FGF7 10 ng/ml or IFNα 1000 U/ml): had the opposite effect
ISRE-driven luciferase activity [2]: significant increase in luciferase activity
expression levels of LCMV nucleoprotein (NP) / viral replication (LCMV): blocked the viral replication

CCN(CC)CCCC(C)Nc1nc(C)cc(Nc2ccc3nc(C)cc(N)c3c2)n1 (racemic) [NSC23766, 6-N-[2-[5-(diethylamino)pentan-2-ylamino]-6-methylpyrimidin-4-yl]-2-methylquinoline-4,6-diamine, reference compound]
FGF7-mediated ISG downregulation (ISG mRNA relative to Rps29) [1]: partially or even completely rescued the FGF7-mediated ISG downregulation
amount and size of Glyc-D-positive fused cells (immunofluorescence) (HSV-1): strongly reduced the amount of Glyc-D-positive fused cells
Glyc-B DNA levels (viral load, qPCR relative to human β-actin gene) (HSV-1): strongly reduced

FGF2: fibroblast growth factor-2
HCV replication (HCV): promoted hepatitis C RNA replication and production of novel particles; also recorded: enhanced viral replication and new particle production, but not infection with the virus

B1: FGF10: recombinant human FGF10, activates FGFR2b and FGFR1b (protein, UniProt O15520 38-208, looked up)
Fibroblast growth factor 10: QALGQDMVSPEATNSSSSSFSSPSSAGRHVRSYNHLQGDVRWRKLFSFTKYFLKIEKNGKVSGTKKENCPYSILEITSVEIGVVAVKAINSNYYLAMNKKGKLYGSKEFNNDCKLKERIEENGYNTYASFNWQHNGRQMYVALNGKGAPRRGQKTRRKNTSAHFLPMVVHS
ISG expression (qRT-PCR relative to RPLP0) [3]: suppressed ISG expression to a similar extent as FGF7
